Results taken from patent publication US8470845B2, “Analgesic and methods of treating pain” (Toray Industries, Inc., priority 2004, dated 2013).

Tests used:
[1] = tested on: female Sprague-Dayley rats; assay: Activity to relieve cystalgia caused by hyperextension of bladder, myoelectric activity of external oblique abdominal muscle as index; format: in vivo, rat; details: iv; for Rate of Inhibition of Myoelectric Activity (Number of Spikes) of External Oblique Abdominal Muscle (vs. before administration, %): anesthetized rats, mean ± standard error
Experimental: The activity of Compound 10f to relieve cystalgia was evaluated using the myoelectric activity of external oblique abdominal muscle in hyperextension of bladder of anesthetized rats as an index of the cystalgia. In the experiments, 14 to 15-week old female Sprague-Dayley rats (CLEA Japan, Inc.) weighing 300 to 360 g were used.
Under halothane (2.5-4%) anesthesia, a polyethylene catheter (PE-50) for cystometry was inserted into the bladder transurethrally. Further, a polyethylene catheter (PE-100) for filling physiological saline was inserted into the bladder from the apex of bladder dome. […] A catheter for drug administration was indwelled in the femoral vein. The skin in the lateral ventral part was incised and a bipolar electrode for electromyographic measurement was inserted into the external oblique abdominal muscle and indwelled therein. A reservoir preliminarily filled with physiological saline was connected to the catheter indwelled in the bladder and held at a prescribed height to extend the bladder. The extension stimulus was continued for 20 seconds. In cases where the stimulation is repeatedly given, the interval between stimulation was 3 minutes. A bipolar electrode (needle electrode for electroencephalography, NIHON KOHDEN) was connected to an electromyograph amplifier (EMG100C, Biopac Systems), and a high cut filter (5 kHz) and low cut filter (100 Hz) were applied. Thereafter, the signals were taken into an AD converter (MP-150WSW, Biopac Systems) and into a computer at 1 kHz, and the myoelectric activity was recorded using the special software (AcqKnowledge 3.8.1, Biopac Systems). The intravesical pressure was measured using a pressure transducer (AP641G, NIHON KOHDEN) and a general purpose amplifier (DA100C, Biopac Systems). The halothane level was adjusted such that a stable myoelectric activity was obtained by extension at a pressure of 50 cmH2O, and then the drug was intravenously administered. Thereafter, hyperextension of bladder was repeated for at least 20 minutes.
The drug was dissolved in aqueous 5% xylitol-0.02% citric acid solution, and the administration volume was 0.5 mL/kg. The mean of the number of spikes during the twice hyperextension of bladder immediately before the drug administration was defined as the value before drug administration. Taking the value before the drug administration as 100%, the change in the number of spikes after administration of the drug was normalized. The mean of the change in the number of spikes by the consecutive three times hyperextension carried out immediately before or after 15-minutes time point from the drug administration was calculated, and the drug effect was analyzed by Williams test.

male ddY mouse [2] = assay: Analgesic activity test by mouse acetic acid writhing method; format: in vivo; details: subcutaneous, 15 minutes before i.p. 0.6% acetic acid; dosage to halve the number of writhing response
Experimental: To each male ddY mouse, each test compound or the vehicle was subcutaneously administered in an administration volume of 0.1 mL/10 g body weight. Fifteen minutes later, 0.1 mL/10 g body weight of aqueous 0.6% (v/v) acetic acid solution was intraperitoneally administered. From 10 minutes after the administration of the acetic acid solution, the number of writhing response (i.e., the behavior to bend the body backward and/or twist the body) during 10 minutes was counted, and the analgesic activity was evaluated based on the number of writhing response. […] 10% Aqueous dimethylsulfoxide (DMSO) was used as a vehicle for test compounds 1, 2, 3, 4, 5, 6, 7, 8, 9, 10, 11, 12, 13, 14, 15, 16, 17, 18, 19, 20, 21 and 22. 0.1% Citric acid/aqueous 5% xylitol was used as a vehicle for test compounds 10f.

male ddY mouse [3] = details: literature, Pain. Vol 50, 223-229 (1992); cited from earlier work

Row | Structure (SMILES) | Rate of Inhibition of Myoelectric Activity (Number of Spikes) of External Oblique Abdominal Muscle (vs. before administration, %) ([1]; 0.003 mg/kg) | Rate of Inhibition of Myoelectric Activity (Number of Spikes) of External Oblique Abdominal Muscle (vs. before administration, %) ([1]; 0.01 mg/kg) | Rate of Inhibition of Myoelectric Activity (Number of Spikes) of External Oblique Abdominal Muscle (vs. before administration, %) ([1]; 0.03 mg/kg) | inhibition of the myoelectric activity (in words) ([1]; 0.003-0.03 mg/kg) | minimum effective dose ([1]; inhibition of myoelectric activity) | ED50 (male ddY mouse [2]) | effect on pain in PGF2α-induced allodynia model (in words) (male ddY mouse [3])
1 | O=C1c2ccccc2C(=O)N1[C@@H]1CC[C@@]2(O)[C@H]3Cc4ccc(O)c5c4[C@@]2(CCN3CC2CC2)[C@H]1O5 [Compound 10f, N-(17-cyclopropylmethyl-4,5α-epoxy-3,14-dihydroxy-morphinan-6β-yl)-phthalimide] | 5.9 ± 11.5% | 42.4 ± 21.1 % | 64.3 ± 17.2 % | dose-dependently and significantly inhibited | 0.01 mg/kg | 0.037 mg/kg | –
2 | CN1CC[C@]23c4c5ccc(O)c4O[C@H]2[C@@H](O)C=C[C@H]3[C@H]1C5 [morphine] | – | – | – | – | – | – | ineffective
